The text below walks through data of patent publication US5849724A, “Microorganism of genus chrysosporium for use in preparing farnesyl transferase inhibitors” (Rhone-Poulenc Rorer S.A., priority 1995, dated 1998).

In the experiment the target is T1, farnesyl transferase (Homo sapiens, UniProt P49354+P49356).
T1 construct: This enzyme has been partially purified from human THP1 cells; endogenous in cells; host or cells: human THP1 cells (enzyme partially purified from them)
The experiment is described as follows: test for inhibition of farnesyl transferase by scintillation proximity assay (SPA). It counts as biochemical. The conditions noted are these: partially purified Ftase from human THP1 cells, 60 minutes at 37° C., BLB and 3H FPP substrates. As to the method: The principle of the SPA (Scintillation Proximity Assay) technology is applied to the assay of the enzymatic activity of farnesyl transferase. According to this method, the farnesyl transferase inhibiting activity is determined by the quantity of [^3 H] farnesyl transferred from [^3 H] farnesyl pyrophosphate, ^3 H FPP, to a biotinylated acceptor substrate.
Method used to detect the active metabolites: test for inhibition of farnesyl transferase by scintillation proximity assay (SPA)
The donor substrate, farnesyl pyrophosphate, is labelled with tritium ^3 H FPP. […] The radiolabelled peptide excites the beads which then emit light which is quantified in a solid-liquid scintillation counter (Topcount®, Packard).
The plate is incubated for 60 minutes at 37° C. and the reaction is stopped by adding 150 μl of stopping reagent containing the SPA beads. The plate is sealed with an adhesive film and left for 30 minutes at room temperature in order to reach equilibrium, and then counted in the Topcount counter. […] The IC50 values of the compounds are calculated by nonlinear regression.
Background: Scintillation proximity formats need no separation of bound from free tracer.

Broadly, the IC50 is the concentration that inhibits the measured activity by half. `CC(C)C1CCC2C1(C)CCC1(C)C3=CCC4C(C)(C(=O)O)C(O)C(O)C(O)C4(COP(=O)(O)O)C3CCC21C` (stereo not shown) [Example 1] yielded an IC50 of 0.83 µM.
